Here are results for 1 compound from ChEMBL document CHEMBL4706618, “Discovery of lysosome-targeted covalent anticancer agents based on isosteviol skeleton” (Eur J Med Chem, 2021).

The data set in a line: GSH reactivity in pH 7.4 sodium phosphate deuterium oxide buffer assessed as half life in presence of glutathione measured up to 6 hrs by 1H NMR analysis. It is filed as ADME. Conditions: sodium phosphate deuterium oxide buffer with glutathione.

On to `C=C1C(=O)C=C[C@]2(C)[C@@H]1CC[C@@]13C/C(=N\OC)[C@@](C)(CC[C@H]12)C3`, for which the half-life is 30 min.
